Reference: article PMC9330537, “DCLK1 promotes colorectal cancer stemness and aggressiveness via the XRCC5/COX2 axis” (Theranostics, 2022)

Target: T1, DCLK1 (Doublecortin-like kinase 1) (Homo sapiens, UniProt O15075)
T1 sequence (O15075 1-740): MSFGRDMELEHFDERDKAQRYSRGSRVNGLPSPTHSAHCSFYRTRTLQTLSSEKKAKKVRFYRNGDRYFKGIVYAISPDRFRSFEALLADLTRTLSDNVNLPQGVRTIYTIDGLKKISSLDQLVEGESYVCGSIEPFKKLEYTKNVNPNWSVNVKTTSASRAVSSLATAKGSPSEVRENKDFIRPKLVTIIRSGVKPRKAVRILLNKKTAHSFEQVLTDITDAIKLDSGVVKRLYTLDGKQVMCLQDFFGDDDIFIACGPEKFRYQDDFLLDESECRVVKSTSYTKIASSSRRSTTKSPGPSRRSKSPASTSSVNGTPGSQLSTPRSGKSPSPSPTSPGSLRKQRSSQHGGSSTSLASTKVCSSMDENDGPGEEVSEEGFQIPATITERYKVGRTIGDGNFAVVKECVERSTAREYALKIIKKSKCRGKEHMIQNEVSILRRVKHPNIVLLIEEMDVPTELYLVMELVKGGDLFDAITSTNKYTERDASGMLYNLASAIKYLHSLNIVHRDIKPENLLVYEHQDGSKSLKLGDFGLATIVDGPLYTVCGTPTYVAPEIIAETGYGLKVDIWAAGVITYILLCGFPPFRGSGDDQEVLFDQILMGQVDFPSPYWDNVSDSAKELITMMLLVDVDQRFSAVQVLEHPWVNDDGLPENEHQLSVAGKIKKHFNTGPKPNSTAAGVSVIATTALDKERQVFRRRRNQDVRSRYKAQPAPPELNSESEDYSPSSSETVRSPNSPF
Assay: DCLK1 kinase activity assay, dose response
Assay type: biochemical

IC50: 143 nM
Structure (SMILES): COc1cc(N2CCN(C)CC2)ccc1Nc1ncc2c(n1)N(C)c1ccccc1C(=O)N2CC(F)(F)F [DCLK1-IN-1]
